This experiment has as its system L1210 leukemia ip in BDF1 mice, survival T/C. As to the kind of experiment: NCI In Vivo Anticancer Drug Screen. Data for tumor model L1210 Leukemia (intraperitoneal) in B6D2F1 (BDF1) mice. Conditions: higher = longer survival. The procedure, abridged: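 Transplantable tumor model; survival measured in treated vs vehicle control mice. Value = treated/control.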
Setting [1] is: endpoint: mean survival time, dose: 100.0 mg/kg/injection, schedule: Q01DX009 (ip), vehicle: saline with Tween-80.
Setting [2] is: endpoint: mean survival time, dose: 200.0 mg/kg/injection, schedule: Q01DX009 (ip), vehicle: saline with Tween-80.
The mark [3] stands for this setting: endpoint: mean survival time, dose: 400.0 mg/kg/injection, schedule: Q01DX009 (ip), vehicle: saline with Tween-80.
Setting [4] is: endpoint: mean survival time, dose: 300.0 mg/kg/injection, schedule: Q01DX001 (ip), vehicle: carboxymethylcellulose (CMC).
Where [5] appears, read: endpoint: mean survival time, dose: 200.0 mg/kg/injection, schedule: Q01DX001 (ip), vehicle: carboxymethylcellulose (CMC).

These results are taken from PubChem BioAssay AID248 (DTP/NCI, 2004).

Several values for one entry are separate records, joined by “and”; a condition that tells them apart may be missing. Equal entries are not always repeated. Inconclusive results and toxic doses are left out.

Turning to `CCOC(=O)c1ccc(NCc2nnc3nc(N)nc(N)c3n2)cc1`, the T/C reads like this: (endpoint: mean survival time, dose: 50.0 mg/kg/injection, schedule: Q01DX001 (ip), vehicle: saline with Tween-80) 103 % of control; (endpoint: mean survival time, dose: 100.0 mg/kg/injection, schedule: Q01DX001 (ip), vehicle: saline with Tween-80) 98 % of control; (endpoint: mean survival time, dose: 200.0 mg/kg/injection, schedule: Q01DX001 (ip), vehicle: saline with Tween-80) 97 % of control.

Turning to `CC1(C)CC(=O)C=C(NC2CCCCC2)C1`, the T/C by setting is: (endpoint: mean survival time, dose: 50.0 mg/kg/injection, schedule: Q01DX009 (ip), vehicle: saline sonified) 94 % of control; (endpoint: mean survival time, dose: 100.0 mg/kg/injection, schedule: Q01DX009 (ip), vehicle: saline sonified) 103 % of control; (endpoint: mean survival time, dose: 100.0 mg/kg/injection, schedule: Q04DX003 (ip), vehicle: Klucel (hydroxypropylcellulose) (HPC)) 96 % of control; (endpoint: mean survival time, dose: 200.0 mg/kg/injection, schedule: Q01DX009 (ip), vehicle: saline sonified) 92 % of control; (endpoint: mean survival time, dose: 200.0 mg/kg/injection, schedule: Q04DX003 (ip), vehicle: Klucel (hydroxypropylcellulose) (HPC)) 98 % of control.

In the case of `Oc1ccc2ccccc2c1Cc1ccccc1`, the T/C was 99 % of control under setting [1], 89 % of control under setting [2] and 92 % of control under setting [3].

In the case of `CN(C)CCS(=O)(=O)CCc1ccccc1`, the T/C (endpoint: mean survival time, dose: 75.0 mg/kg/injection, schedule: Q01DX001 (ip), vehicle: carboxymethylcellulose (CMC)) was 106 % of control; the T/C (endpoint: mean survival time, dose: 150.0 mg/kg/injection, schedule: Q01DX001 (ip), vehicle: carboxymethylcellulose (CMC)) is 98 % of control; the T/C under setting [4] is 101 % of control.

`Oc1cc(O)c(CN(CCCl)CCCl)cc1CN(CCCl)CCCl`: the T/C is, setting by setting: (endpoint: mean survival time, dose: 5.5 mg/kg/injection, schedule: Q01DX009 (ip), vehicle: saline) 115 % of control; (endpoint: mean survival time, dose: 8.2 mg/kg/injection, schedule: Q01DX009 (ip), vehicle: saline) 121 % of control; (endpoint: mean survival time, dose: 18.75 mg/kg/injection, schedule: Q01DX009 (ip), vehicle: saline) 103 % of control; (endpoint: mean survival time, dose: 25.0 mg/kg/injection, schedule: Q01DX009 (ip), vehicle: saline with Tween-80) 101 % of control; (endpoint: mean survival time, dose: 50.0 mg/kg/injection, schedule: Q01DX001 (ip), vehicle: carboxymethylcellulose (CMC)) 115 % of control; (endpoint: mean survival time, dose: 50.0 mg/kg/injection, schedule: Q01DX009 (ip), vehicle: saline with Tween-80) 94 % of control. For the same compound, the T/C is, setting by setting: (endpoint: mean survival time, dose: 100.0 mg/kg/injection, schedule: Q01DX001 (ip), vehicle: carboxymethylcellulose (CMC)) 115 % of control; (endpoint: mean survival time, dose: 100.0 mg/kg/injection, schedule: Q04DX003 (ip), vehicle: saline) 110 % of control; under setting [5], 108 % of control; (endpoint: mean survival time, dose: 200.0 mg/kg/injection, schedule: Q04DX003 (ip), vehicle: saline) 92 % of control; (endpoint: mean survival time, dose: 400.0 mg/kg/injection, schedule: Q01DX001 (ip), vehicle: carboxymethylcellulose (CMC)) 123 % of control; (endpoint: mean survival time, dose: 400.0 mg/kg/injection, schedule: Q04DX003 (ip), vehicle: saline) 90 % of control. For the same compound, for the setting “endpoint: mean survival time, dose: 800.0 mg/kg/injection, schedule: Q04DX003 (ip), vehicle: saline”, the T/C is 100 % of control.

For the compound `CNS(=O)(=O)c1ccc(NC(=O)CI)cc1`, the T/C runs as follows: (endpoint: mean survival time, dose: 3.0 mg/kg/injection, schedule: Q01DX009 (ip), vehicle: Klucel (hydroxypropylcellulose) (HPC)) 112 % of control; (endpoint: mean survival time, dose: 6.0 mg/kg/injection, schedule: Q01DX009 (ip), vehicle: Klucel (hydroxypropylcellulose) (HPC)) 96 % of control; (endpoint: mean survival time, dose: 12.0 mg/kg/injection, schedule: Q01DX009 (ip), vehicle: Klucel (hydroxypropylcellulose) (HPC)) 108 % of control; (endpoint: mean survival time, dose: 12.5 mg/kg/injection, schedule: Q01DX001 (ip), vehicle: other) 96 % of control; (endpoint: mean survival time, dose: 12.5 mg/kg/injection, schedule: Q04DX003 (ip), vehicle: other) 93 % of control; (endpoint: mean survival time, dose: 25.0 mg/kg/injection, schedule: Q01DX001 (ip), vehicle: other) 96 % of control. For the same compound, the T/C (endpoint: mean survival time, dose: 50.0 mg/kg/injection, schedule: Q01DX001 (ip), vehicle: other) is 88 % of control.

On to `Oc1ccc(Br)cc1/C=N/c1nc(-c2ccccc2)cs1.Oc1ccc(Br)cc1/C=N/c1nc(-c2ccccc2)cs1.[Zn]`, for which the T/C (endpoint: mean survival time, dose: 100.0 mg/kg/injection, schedule: Q01DX001 (ip), vehicle: saline) is 86 % of control.

Regarding `O=C(c1ccc(F)cc1)c1ccc2ccccc2c1`, the T/C (endpoint: mean survival time, dose: 100.0 mg/kg/injection, schedule: Q01DX009 (ip), vehicle: Klucel (hydroxypropylcellulose) (HPC)) was 98 % of control; the T/C (endpoint: mean survival time, dose: 100.0 mg/kg/injection, schedule: Q04DX003 (ip), vehicle: other) is 97 % of control; the T/C (endpoint: mean survival time, dose: 200.0 mg/kg/injection, schedule: Q01DX009 (ip), vehicle: Klucel (hydroxypropylcellulose) (HPC)) is 95 % of control; the T/C (endpoint: mean survival time, dose: 200.0 mg/kg/injection, schedule: Q04DX003 (ip), vehicle: other) is 94 % of control; the T/C (endpoint: mean survival time, dose: 400.0 mg/kg/injection, schedule: Q01DX009 (ip), vehicle: Klucel (hydroxypropylcellulose) (HPC)) was 92 % of control; the T/C (endpoint: mean survival time, dose: 400.0 mg/kg/injection, schedule: Q04DX003 (ip), vehicle: other) is 94 % of control.

On to `CN(C)/N=C/c1ccc[n+](C)c1`, for which the T/C by setting is: (endpoint: mean survival time, dose: 6.25 mg/kg/injection, schedule: Q01DX009 (ip), vehicle: saline) 113 % of control; (endpoint: mean survival time, dose: 12.5 mg/kg/injection, schedule: Q01DX009 (ip), vehicle: saline) 109 % of control; (endpoint: mean survival time, dose: 25.0 mg/kg/injection, schedule: Q01DX009 (ip), vehicle: saline) 98 % of control and 110 % of control.

For the compound `CCCN(C)/N=N/c1nc[nH]c1C(N)=O`, the T/C reads like this: (endpoint: mean survival time, dose: 22.0 mg/kg/injection, schedule: Q01DX009 (ip), vehicle: carboxymethylcellulose (CMC)) 120 % of control; (endpoint: mean survival time, dose: 37.5 mg/kg/injection, schedule: Q01DX Z (ip), vehicle: carboxymethylcellulose (CMC)) 151 % of control; (endpoint: mean survival time, dose: 50.0 mg/kg/injection, schedule: Q01DX009 (ip), vehicle: carboxymethylcellulose (CMC)) 151 % of control; (endpoint: mean survival time, dose: 50.0 mg/kg/injection, schedule: Q01DX Z (ip), vehicle: carboxymethylcellulose (CMC)) 158 % of control; (endpoint: mean survival time, dose: 75.0 mg/kg/injection, schedule: Q01DX009 (ip), vehicle: carboxymethylcellulose (CMC)) 157 % of control; (endpoint: mean survival time, dose: 88.0 mg/kg/injection, schedule: Q01DX001 (ip), vehicle: carboxymethylcellulose (CMC)) 106 % of control. Besides, the T/C (endpoint: mean survival time, dose: 89.0 mg/kg/injection, schedule: Q01DX001 (ip), vehicle: carboxymethylcellulose (CMC)) is 117 % of control; the T/C (endpoint: mean survival time, dose: 100.0 mg/kg/injection, schedule: Q01DX009 (ip), vehicle: carboxymethylcellulose (CMC)) is 152 % of control; the T/C (endpoint: mean survival time, dose: 133.0 mg/kg/injection, schedule: Q01DX001 (ip), vehicle: carboxymethylcellulose (CMC)) was 101 % of control and 124 % of control; the T/C under setting [5] is 103 % of control; the T/C under setting [4] is 104 % of control and 117 % of control; the T/C (endpoint: median survival time, dose: 12.5 mg/kg/injection, schedule: Q01DX009 (ip), vehicle: steriod suspending solution) is 116 % of control and 122 % of control. For the same compound, the T/C is 166 % of control (endpoint: median survival time, dose: 50.0 mg/kg/injection, schedule: Q01DX009 (ip), vehicle: steriod suspending solution) and 122 % of control (endpoint: median survival time, dose: 100.0 mg/kg/injection, schedule: Q01DX009 (ip), vehicle: steriod suspending solution).

Consider `Cc1ccc(Cl)cc1NC(=O)N(C)Cc1ccccc1`, for which the T/C runs as follows: under setting [1], 95 % of control and 104 % of control; (endpoint: mean survival time, dose: 100.0 mg/kg/injection, schedule: Q04DX002 (ip), vehicle: saline with Tween-80) 94 % of control and 120 % of control; (endpoint: mean survival time, dose: 100.0 mg/kg/injection, schedule: Q04DX003 (ip), vehicle: saline with Tween-80) 100 % of control; under setting [2], 97 % of control and 104 % of control; (endpoint: mean survival time, dose: 200.0 mg/kg/injection, schedule: Q04DX002 (ip), vehicle: saline with Tween-80) 98 % of control and 105 % of control; (endpoint: mean survival time, dose: 200.0 mg/kg/injection, schedule: Q04DX003 (ip), vehicle: saline with Tween-80) 105 % of control. Besides, the T/C is, setting by setting: under setting [3], 97 % of control and 108 % of control; (endpoint: mean survival time, dose: 400.0 mg/kg/injection, schedule: Q04DX002 (ip), vehicle: saline with Tween-80) 98 % of control and 86 % of control; (endpoint: mean survival time, dose: 400.0 mg/kg/injection, schedule: Q04DX003 (ip), vehicle: saline with Tween-80) 108 % of control.

Turning to `CNC(=O)N(C)c1cc(N(C)C)nc(OC)n1`, the T/C runs as follows: (endpoint: mean survival time, dose: 5.0 mg/kg/injection, schedule: Q01DX009 (ip), vehicle: Klucel (hydroxypropylcellulose) (HPC)) 98 % of control; (endpoint: mean survival time, dose: 10.0 mg/kg/injection, schedule: Q01DX009 (ip), vehicle: Klucel (hydroxypropylcellulose) (HPC)) 94 % of control; (endpoint: mean survival time, dose: 20.0 mg/kg/injection, schedule: Q01DX009 (ip), vehicle: Klucel (hydroxypropylcellulose) (HPC)) 94 % of control.
